Source: US20060106099A1, “Novel inhibitors of ubiquitin isopeptidases” (priority 2002, published 2006)
Where two headings read alike, the source gives them in different places.

Experiments:
HCT 116 −/− cells [1] = assay: MTT cell viability assay, HCT 116 p53 −/− cells; settings: read-out: Cytotoxic Potency (EC50) HCT −/−; 48 h, MTT
[2] = system: cell lines with mutant/deleted p53; settings: mean of 41-42 cell lines with mutant/deleted p53; read-out: Mutant p53 Mean LC50; cited from earlier work
[3] = system: cell lines with Wild type p53; settings: cited from earlier work
ubiquitin isopeptidases [4] = assay: In vivo isopeptidase activity after treatment of RKO cells, Ub-PEST; format: cell-based, human; settings: 6 h
Description: (§1) Isopeptidase Assay. It was hypothesized that the punaglandins would inhibit ubiquitin-isopeptidase activity of the proteasome pathway as does the prostaglandin, Δ^12-PGJ2 (1), but with greater potency because of the chlorinated C-10. To validate this theory, cellular isopeptidase enzymatic activity was measured in vitro after treatment with individual punaglandins, PNG 2 (6), PNG 3 (7), and Z-PNG 4 (9) and in vivo after individual treatment with PNG 4 (8) and PNG 6 (10). This activity was determined utilizing the simple isopeptidase substrate, ubiquitin-PEST (Ub-PEST), a full/length ubiquitin (Ub) molecule fused with an 18-amino acid C-terminal peptide extension that most isopeptidases use as a substrate. The polypeptide extension contains regions rich in Pro (P), Glu (E), Ser (S), and Thr (T) residues called PEST motifs that are responsible for rapid degradation of these and other unstable proteins. Ub isopeptidases specifically cleave this peptide extension, yielding free, full-length Ub. Both the fused Ub-PEST (10.5 kDa) and the cleaved, free Ub (8.5 kDa) can be observed via immunochemical detection.
In vivo Isopeptidase Activity. To investigate whether punaglandins can inhibit isopeptidase activity in vivo, isopeptidase activity was analyzed after punaglandin treatment of RKO cells. PNG 4 (8) and PNG 6 (10) were selected for in vivo investigation because they differ only in enone functionality, where (8) is a dienone and (10) an enone. RKO cells were incubated with 1 μM, 4 μM, or 7 μM of PNG 4 (8) and PNG 6 (10). […] As a positive control, cells were treated with a known isopeptidase inhibitor, shikoccin (SK). After 6 h drug treatment, cells were lysed and protein concentration adjusted to 0.3 mg/mL per sample. Each sample was subsequently incubated with 50 μg/mL of Ub-PEST. The reaction was terminated after 20 min and the respective amounts of Ub-PEST (10 kDa) and free Ub product (8.5 kDa) were determined by SDS-PAGE fractionation.

ubiquitin isopeptidases [5] = assay: Reversibility of isopeptidase inhibition in cell lysates, z-LRGG-AMC, dialysis; format: biochemical; settings: 100 μM
Description: FIG. 5 Reversibility of isopeptidase inhibition by Δ12-PGJ2. Cell lysates (0.5 mg/mL) were treated with DMSO vehicle or 100 μM .12-PGJ2 for 1 hour,25° C. The treated lysates were divided into two aliquots. One aliquot was immediately analyzed for isopeptidase activity by incubating with z-LRGG-AMC as previously described (Pre-Dialysis). The second aliquot was dialyzed by washing with 3 volumes of assay buffer on a centricon YM-30 column, followed by analysis for isopeptidase activity by incubating with z-LRGG-AMC (Post-Dialysis).
Δ-12-PGJ2 irreversibility was determined. Cell lysates were incubated with vehicle or 100 μM test compound and isopeptidase activity was measured fluorimetrically. 500 μl portion of each sample were dialyzed through a Centricon filter with a molecular weight cut-off of […]. After washing with 3 volumes of assay buffer, isopeptidase activity was measured in the […].

ubiquitin isopeptidases [6] = settings: cells treated for 12 h; cited from earlier work
HCT 116 +/+ cells [7] = settings: Mullally et al., University of Utah, 2003; read-out: EC50 in competent HCT 116 cells; cited from earlier work
ubiquitin isopeptidases [8] = assay: In vitro isopeptidase activity in HCT 116 lysates, Ub-PEST; format: biochemical, human; settings: HCT 116 lysates, 45 min
Description: as §1
In Vitro Isopeptidase Activity. PNG 2 (6), PNG 3 (7), and Z-PNG 4 (9) were initially analyzed for isopeptidase activity in vitro in HCT 116 lysates. Cells were lysed with isopeptidase activity buffer and protein concentration adjusted to 0.3 mg/mL per sample. Each sample was subsequently incubated with 2 μM, 6 μM, 20 μM, 60 μM, or 200 μM of PNG 2 (6), PNG 3 (7), Z-PNG 4 (9), Δ^12-PGJ2 (1), and PGA1 (2) in addition to 50 μg/ml of Ub-PEST. Negative control cells were treated with vehicle (0.5% DMSO) and equivalent Ub-PEST. […] The amount of fused Ub-PEST and free Ub product was determined by SDS-PAGE fractionation.

[9] = cited from earlier work
[10] = in vivo; cited from earlier work
HCT 116 +/+ cells [11] = system: HCT 116 +/+ cells
Description: Cell viability was measured with MTT reagent as described in materials and methods.
Cell viability was detected by the MTT assay. Briefly, 1×10^5 cells were incubated per well of a sterile, 96-well assay plate with 0-60 μM of test compounds for 48 hours. MTT reagent was added to each well, final concentration of 0.5 mg/mL, and incubated for an additional 3 hours. The media was aspirated and remaining MTT reagent from each well and added 100 μL of HCl:isopropanol (1:24). The absorbance of each sample was measured at 405 nm.

HCT 116 −/− cells [12] = system: HCT 116 −/− cells

Row | SMILES | EC50 (HCT 116 −/− cells [1]) [µM] | CC50 [2] [µM] | EC50 (RKO cells) [µM] | p53 dependence in NCI 60 cell line cancer screening data ([3]; analysis according to O'Connor et al., 1997) | LC50 ([3]; mean of 18 cell lines with wild type p53) [µM] | effect on Ub-PEST degradation, control substances (ubiquitin isopeptidases [4]) | isopeptidase inhibition in treated cell lysates, pre-dialysis (ubiquitin isopeptidases [5]; 1 hour, 25° C.) | reversibility of isopeptidase inhibition, post-dialysis (ubiquitin isopeptidases [5]; dialysis with 3 volumes of assay buffer) | concentration showing inhibition of Ub-PEST degradation, previous in vivo studies (ubiquitin isopeptidases [6]) [µM] | EC50 (HCT 116 +/+ cells [7]) [µM] | concentration at which inhibition of Ub-PEST degradation is initially observed (ubiquitin isopeptidases [8]) [µM] | concentration of complete (total) inhibition of Ub-PEST degradation (ubiquitin isopeptidases [8]) [µM] | t1/2 of metabolism to an inactive compound in serum [9] [min] | cross-resistance with cisplatin and adriamycin [10] | EC50 (HCT 116 +/+ cells [11]) [µM] | EC50 (HCT 116 −/− cells [12]) [µM]
1 | C=C1C(=O)C2=CC1CCC(=O)C1(C)CCC(OC(C)=O)C(C)(C)C1CC2O (stereo not shown) [NSC-302979, shikoccin] | 3.2 ± 0.2 | 66 | 1.8 ± 0.1 | act independently of p53 | 54 | expected inhibition of Ub-PEST degradation |  |  |  |  |  |  |  |  |  | 
2 | CCCCC[C@H](O)C/C=C1/C(=O)C=C[C@@H]1C/C=C\CCCC(=O)O [Δ12-PGJ2, Δ12-prostaglandin J2] |  |  |  |  |  |  | inhibited isopeptidase activity in treated cell lysates | could not be reversed by dialysis | 60 | 3.6 | 60 | 200 | < 5 | little cross-resistance with cisplatin and adriamycin | 3.6 ± 0.3 | 4.1 ± 0.1
